This is an account of results in PubChem BioAssay (NCI).

Common to all, as to assay: NCI anticancer screen, dose series, 48 h
Test [1] concerns 786-0 renal.
Test [2] deals with OVCAR-5 ovarian.
Test [3] relates to OVCAR-4 ovarian.
In test [4] the test system is HOP-62 NSCLC.
For test [5], the system named is HOP-92 NSCLC.
Test [6] has as its system CCRF-CEM leukemia.
The test system of test [7] is SNB-75 CNS.
Test [8] deals with HL-60(TB) leukemia.
In test [9] the test system is ACHN renal.
Test [10] deals with SR leukemia.

The structures appear in SMILES notation. Where “and” joins values, the source holds several entries; their conditions need not be identical. Equal entries are not always repeated.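 Exposure lasted 48 hours, with cells grown in 96-well plates and compounds tested at five concentrations. Abbreviation: GI50, concentration required for 50% inhibition of growth. TGI: total growth inhibition.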 A value given as a limit tells only on which side of the number the result lay.

`COc1ccc(C2C3=C(NC(=O)C2C#N)c2ccc4ccccc4c2OCC3)cc1` (stereo not drawn): the GI50 in [1] is 30.2 µM; in [2], > 100 µM; in [3], > 100 µM; in test [4], 28.2 µM; in test [5] it was 11.4 µM; in test [6], > 100 µM. Moreover, the GI50 in test [7] is 21.9 µM; in test [8] it was 65.8 µM; in [9], 21.9 µM; in test [10], > 100 µM. Moreover, the TGI in [1] was 86.4 µM; in test [2], > 100 µM; in [3], > 100 µM; in [4], 86.3 µM; in test [5] it was 43.4 µM; in [6], > 100 µM. Moreover, the TGI is 69.1 µM in [7], > 100 µM in test [8], 59.5 µM in test [9] and > 100 µM in test [10].
In the case of `COc1ccc2c(c1)O/C(=C\c1cccc(OCC(=O)Nc3nc4ccccc4s3)c1)C2=O`, the GI50 in test [1] is > 66.4 µM; in [2] it was > 84.3 µM; in test [3], 22.3 µM; in test [4], 41.1 µM; in test [5], 2.65 µM; in test [6] it was 0.419 µM. The values for the GI50 in test [8], in test [9] and in [10] were 4.68 µM, 12.7 µM and 0.749 µM, respectively. Also, the TGI in test [1] is > 100 µM; in test [2], > 100 µM; in [3], > 100 µM; in test [4], > 100 µM; in test [5] it was 18.4 µM; in test [6] it was 1.25 µM. Moreover, the TGI in test [7] is > 24 µM; in test [8] it was > 63 µM; in [9], > 100 µM; in test [10] it was 2.42 µM.
As to `COC(=O)c1cnc2nc(N3CCOCC3)[nH]n2c1=O`, the TGI in [1], in test [2], in test [3], in test [4], in [5] and in test [6] was > 100 µM each time. In addition, the TGI in test [7], in test [8], in test [9] and in test [10] was > 100 µM throughout.
Turning to `C[C@@H]1O[C@@H](O[C@H]2C[C@@H](O)[C@]3(CO)C4C(CC[C@]3(O)C2)[C@@]2(O)CC[C@H](C3=CC(=O)OC3)[C@@]2(C)C[C@H]4O)[C@H](O)[C@H](O)[C@H]1O` (stereo partly drawn), the GI50 in [1] is 0.018 µM; in test [2], 0.0606 µM; in test [3] it was 0.0116 µM; in test [4] it was 0.0137 µM; in test [5] it was 0.0597 µM; in test [6], 0.0168 µM. In addition, the GI50 in test [7] was 0.0277 µM; in [8], 0.013 µM; in test [9], 0.0148 µM; in test [10], 0.0105 µM. Besides, the TGI turned out to be 0.0687 µM in [1]; 0.127 µM in test [2]; 0.0308 µM in test [3]; 0.0385 µM in test [4]; 0.25 µM in [5]; 0.0808 µM in [6]. The TGI in test [7] worked out at 0.0946 µM; in test [8], 0.0318 µM; in [9], 0.0461 µM; in [10] it was 0.0317 µM.
With `Cn1cc(-c2cc3c(Nc4ccc(CC(=O)Nc5cc(C(C)(C)C)on5)cc4)ncnc3[nH]2)cn1`, the GI50 is 0.995 µM and 0.536 µM in [1]; 1.3 µM and 1.08 µM in [2]; 0.592 µM and 0.547 µM in [3]; 0.876 µM and 0.444 µM in [4]; 1.42 µM and 0.536 µM in test [5]; 0.395 µM and 0.302 µM in test [6]. Besides, the GI50 in test [7] is 0.655 µM and 0.133 µM; in [8], 1.98 µM and 1.58 µM; in [9] it was 1.94 µM and 1.71 µM; in [10], 0.328 µM and 0.324 µM. The TGI in test [1] is 5.05 µM and 4.71 µM; in [2], 7.18 µM and 6.62 µM; in [3] it was 4 µM and 5.17 µM; in test [4] it was 4.97 µM and 4.58 µM; in test [5], 11.8 µM and 4.39 µM; in test [7], 1.78 µM and 2.47 µM. For the same molecule, the TGI is 6.63 µM and 5.47 µM in test [8]; 7.36 µM and 6.4 µM in test [9]; > 53.7 µM in test [10].
For `O=S(=O)(c1cccc(C(F)(F)F)c1)N1c2ccccc2-n2cccc2C1c1cccnc1` (stereo not drawn), the TGI is > 62.3 µM in test [1]; > 75.1 µM in test [2]; > 48.4 µM in test [3]; > 66.8 µM in [4]; > 67.7 µM in test [5]; > 51.6 µM in test [6]. In addition, the TGI is > 100 µM in test [7], 28.3 µM in [8], > 74.1 µM in [9] and 71.9 µM in test [10].
With `COc1ccc(-c2cc(C(=O)Nc3cccc(C(F)(F)F)c3)[nH]c(=S)n2)cc1`, the TGI in [1], in test [2], in test [3], in test [4], in test [5] and in [6] was > 100 µM throughout. Besides, the TGI in test [7], in [8], in [9] and in [10] was > 100 µM each time.
